The results in this text go back to patent US20050215548A1 (Cyclacel Limited, priority 2002, published 2005).

Residues, ends and D or L forms follow the SMILES beside them. *: point of attachment. Cbz = O=C(OCc1ccccc1)*; CH2F = FC*

Test [1] concerns AGS. As to the kind of experiment: 72-h MTT cytotoxicity assay, AGS. Type of test: cell-based. The settings on record: Homo sapiens, 72-h MTT, Table 1, read-out: IC50 Anti-proliferative effect on cell line AGS. In a few lines: (§1)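 Growth of human tumour cells in compound presence was quantified. Lines: SJSA-1 (p53 wild-type, HDM2 high), H1299 (no p53, HDM2 low), AGS (p53 wild-type).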

In test [2] the test system is key proteins in the HDM2 pathway. As to the kind of experiment: SDS-PAGE and immunoblotting of key proteins in the HDM2 pathway. Type of test: cell-based, human. The source says:
Equal amounts of cell lysate were separated by SDS-PAGE and analysed by immunoblotting using the indicated antibodies. An estimation of the extent of cell rounding is indicated above each lane. […] (B) The effect of compound 2 on the levels of the cell cycle proteins in AGS cells (wild-type 53). […] Equal amounts of cell lysate were separated by SDS-PAGE and analysed by immunoblotting using the indicated antibodies. An estimation of the extent of cell rounding is indicated above each lane. (C) The effect of negative control compound (refer Example 10), compound 2, cisplatin, and anisomycin on the levels of key proteins in MCF7 cells. […] Cisplatinum and anisomycin (a transcription inhibitor) treatments were with 50 μM or 37 μM, respectively. Cells were harvested at various time points; afterwards lysates were prepared and separated by SDS-PAGE and analysed by immunoblotting. The proteins detected are indicated. The extent of rounded or floating cells and the percentage viable cells were assessed. […] Equal amounts of cell lysate were separated by SDS-PAGE and analysed by immunoblotting using a range of antibodies. An estimation of the extent of cell rounding is indicated above each lane. […] SJSA1 cells were treated with 5 times [IC50] of compound 2 and collected at the indicated time points. Equal amounts of cell lysate were separated by SDS-PAGE and analysed by immunoblotting using a range of antibodies. An estimation of the extent of cell rounding is indicated above each lane.
Many types of cellular stress converge on the p53 pathway and induce its activity. […] The biological effect of bisarylsufonamides on cellular level was studies using representative compounds (mainly compound 2) and number of cell lines with different HDM2 and p53 status. These were overexpressing Hdm2 (SJSA1—osteosarcoma), wild type p53 and normal levels of HDM2 (AGS—gastric adenocarcinoma, MCF7—breast adenocarcinoma), or p53 null, low levels of HDM2 (H1299—large cell lung carcinoma).
Cells were lysed and equal amounts were analysed by SDS-polyacrylamide gel electrophoresis (SDS-PAGE) and immunoblotting.
For orientation: A western blot detects proteins with antibodies after separation by electrophoresis.

Test [3] has as its target T1, HDM2 (Homo sapiens, UniProt Q00987).
T1 construct: Recombinant HDM2 (1.5 μg per well) in TBS-BSA buffer
As to the kind of experiment: Fluorescence polarisation competitive HDM2 binding assay. The settings on record: text of Example 10, refer Table 1; read-out: competitive inhibition IC50. The method, boiled down:
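Recombinant HDM2 (1.5 μg/well) was preincubated 5 min at room temperature with serially diluted compound in 50 mM Tris pH 7.4, 150 mM NaCl, 0.1% BSA, 5% DMSO final. Fluorescein-labelled p53 peptide (0.2 μM) was then added for 45 min. Polarisation was read at 485/520 nm and IC50 derived from dose-response curves.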
(In fluorescence polarisation assays a small probe gives low polarisation when free and higher when bound to something large.)

In test [4] the test system is SJSA-1. As to the kind of experiment: 72-h MTT cytotoxicity assay, SJSA-1. In kind it is cell-based. The note with it: Homo sapiens, SJSA-1; 72-h MTT; Table 1; read-out: IC50 Anti-proliferative effect on cell line SJSA-1. The method, boiled down: as §1
(Tetrazolium dyes change colour on reduction, which living cells bring about.)

Test [5] relates to AGS, H1299, MCF7 or SJSA1 cells. As to the kind of experiment: Cell morphology (cell rounding). Type of test: cell-based, human. The settings on record: five times IC50. The source says:
Equal amounts of cell lysate were separated by SDS-PAGE and analysed by immunoblotting using the indicated antibodies. An estimation of the extent of cell rounding is indicated above each lane. The arrow indicates the position of a 85-kDa cleavage product of PARP, indicative of apoptosis. (B) The effect of compound 2 on the levels of the cell cycle proteins in AGS cells (wild-type 53). […] Equal amounts of cell lysate were separated by SDS-PAGE and analysed by immunoblotting using the indicated antibodies. An estimation of the extent of cell rounding is indicated above each lane. (C) The effect of negative control compound (refer Example 10), compound 2, cisplatin, and anisomycin on the levels of key proteins in MCF7 cells. […] Cisplatinum and anisomycin (a transcription inhibitor) treatments were with 50 μM or 37 μM, respectively. Cells were harvested at various time points; afterwards lysates were prepared and separated by SDS-PAGE and analysed by immunoblotting. The proteins detected are indicated. The extent of rounded or floating cells and the percentage viable cells were assessed. […] Equal amounts of cell lysate were separated by SDS-PAGE and analysed by immunoblotting using a range of antibodies. An estimation of the extent of cell rounding is indicated above each lane. […] SJSA1 cells were treated with 5 times [IC50] of compound 2 and collected at the indicated time points. Equal amounts of cell lysate were separated by SDS-PAGE and analysed by immunoblotting using a range of antibodies. An estimation of the extent of cell rounding is indicated above each lane.
Cells were treated with 5 times [IC50] of compound 2 and collected at various time points. The percentage of rounded cells was counted before cells were trypsinised and counted for cell viability using trypan blue.
Cells were lysed and equal amounts were analysed by SDS-polyacrylamide gel electrophoresis (SDS-PAGE) and immunoblotting. […] The reduction in E2F-1 levels correlated with reduction in E2F transcriptional activity as determined by an E2F-dependent luciferase reporter assay (refer Example 6).

For test [6], the system named is H1299. As to the kind of experiment: 72-h MTT cytotoxicity assay, H1299. The note with it: Homo sapiens, NCI-H1299; 72-h MTT; Table 1; read-out: IC50 Anti-proliferative effect on cell line H 1299. In kind it is cell-based. In a few lines:
as §1

The test system of test [7] is AGS cells. As to the kind of experiment: Caspase activity (casp ACE assay), AGS. In kind it is cell-based, human. The settings on record: 24 hours. As to the method:
In more detail: (A) Cells were treated with […] [IC50] of compound 2 or cisplatinum and collected at the time points indicated. Cell lysates were prepared, the caspase activity was determined using the casp ACE assay and values were plotted on a graph. (B) Cells were treated with 5 times [IC50] of compound 2 or cisplatinum and collected at the time points indicated. AGS cells were also incubated with compound 2 in the presence of a caspase inhibitor Z-VAD.fmk. Cell lysates were prepared, the caspase activity was determined using the casp ACE assay and values were plotted on a graph.
To characterise the apoptosis-inducing properties of bisarylsulfonamides caspase ⅓ activty was measured. AGS or H1299 cells were treated with a low concentration of compound 2 or cisplatin corresponding to twice the IC50 value (FIG. 6A). Morphological changes were detected in 10-20% of cells by 72 hours corresponding to an induction of caspase activity first detected at 48 hours, increasing by 72 hours. We also treated AGS and H1299 cells with higher concentrations corresponding to five times the IC50 (FIG. 6B). In this experiment we included a […], Z-VAD.fmk to determine the caspase responsible.

Usually IC50 stands for the concentration that gives 50% inhibition.

T1 sequence (Q00987 whole entry): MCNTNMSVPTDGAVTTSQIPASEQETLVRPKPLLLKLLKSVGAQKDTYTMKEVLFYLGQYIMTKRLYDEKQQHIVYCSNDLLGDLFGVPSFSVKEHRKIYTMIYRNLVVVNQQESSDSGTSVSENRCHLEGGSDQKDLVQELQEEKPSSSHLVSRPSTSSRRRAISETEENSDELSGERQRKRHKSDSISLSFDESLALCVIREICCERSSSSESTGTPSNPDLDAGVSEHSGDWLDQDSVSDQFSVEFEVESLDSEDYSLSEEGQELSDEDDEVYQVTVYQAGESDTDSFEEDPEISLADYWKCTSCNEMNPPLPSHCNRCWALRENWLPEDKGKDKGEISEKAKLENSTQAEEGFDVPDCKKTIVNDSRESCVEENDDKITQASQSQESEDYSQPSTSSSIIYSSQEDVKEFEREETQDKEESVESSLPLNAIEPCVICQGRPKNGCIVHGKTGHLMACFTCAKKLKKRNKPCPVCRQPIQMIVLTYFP

Regarding `O=[N+]([O-])c1csc(S(=O)(=O)Nc2ccc(Cl)cc2)c1` [Compound 69, 4-Nitro-thiophene-2-sulfonic acid (4-chloro-phenyl)-amide], the IC50 in test [1] was 19 µM; in test [3] it was 151 µM; in test [4] it was 28 µM; in test [6], 30 µM. Also, in test [2] (five times IC50, 85-kDa cleavage product marker for apoptosis), the “PARP cleavage / PARP levels” value is given as “Rapid reduction in PARP levels”. In addition, the “changes in protein levels and cell morphology” value in test [2] (negative control: MCF7, 13.5 μM, 68/69: MCF7 and H1299 at five times IC50 of 69, 49: AGS, SJSA1, H1299) was “induced changes in both morphology and protein levels”. For the same molecule, the cell rounding result in test [5] is “No rapid cell rounding”.
Regarding `COC(=O)C[C@H](NC(=O)[C@H](C)NC(=O)[C@@H](NC(=O)OCc1ccccc1)C(C)C)C(=O)CF` [Z-VAD.fmk, reference compound] (Cbz-Val-Ala-Asp(OMe)-CH2F), the “caspase activity induced by compound 2 in presence of caspase inhibitor” value in test [7] is recorded as “reduced the caspase activity to background levels”.
